Measured values from patent publication US20120087980A1, “STIMULATION OF NEUROREGENERATION BY FLAVONOID GLYCOSIDES” (priority 2010, published 2012).

What was measured:
NG108 cells = assay: Microarray gene expression analysis (whole Mouse Genome 4x44k OligoMicroarrays); format: cell-based; details: 40 uM isoquercitrin
Procedure: Cell culture. The NG108-15 neuroblastoma/glioma cells and ND7/23 rat DRG/mouse neuroblastoma cells were seeded at 10^4 cells/cm^2 on laminin coated wells and stimulated for 48 hours with 40 μM isoquercitrin (Cat No 00140585, Sigma) alone or in combination with either 10 μM Rho Kinase inhibitor Y-27632 (Cat No Y0503, Sigma) or 0.25 μg/ml Rho inhibitor Exoenzyme C3 Transferase (Cat No CT04, Cytoskeleton). Later, isoquercitrin stimulated cells were incubated with 0.2 unit/ml Rho Activator Calpeptin (Cat No CN01, Cytoskeleton) or, alternatively with 0.25 μM Phospholipase C inhibitor U73122 (Cat No 662035, Calbiochem). Live Cell Imaging. During incubation, cells were observed by time-lapse live cell imaging with Cell-IQ (Chip-Man Technologies, Ltd). Quantitative analysis of neurite length/cell was performed using Cell-IQ Analyser Software. Cell imaging by Immunofluorescence. Cells were cultured for 48 hrs on a Chamber Slide™ System (Lab-Tek™) under the above described conditions. Then, the cells were fixed and permeabilized with 4% formaldehyde/0.1% Triton X100 in PBS for 20 min at 4° C. After blocking with PBS containing 20% FBS and 5% BSA for 1 h at room temperature, they were incubated with mAb anti-synaptotagmin-1 (1:200, SY Synaptic Systems) for 1 hr at room temperature. Following three washes in PBS, cells were incubated with Alexa Fluor® 488 goat anti-mouse IgG/IgM (Invitrogen) for 30 min at room temperature. Afterwards, cells were incubated with 0.13 μg/ml phalloidin in the dark for 30 min at 4° C. Finally DAPI was added and last 30 min. Samples were rinsed three times and kept in PBS. The imaging was performed using Confocal Laser Scanning Microscope (Carl Zeiss AG). Assay for RhoA activation. For RhoA activation assay, the procedure followed the manufacture's instruction regarding RhoA G-LISA™ Activation Assay (Cytoskeleton). Briefly, grown cells were homogenized in a lysis buffer and were centrifuged at 14,000 rpm for 2 min. The supernatants, containing equal amount of proteins (60 μg/30 μl), were transferred into a 96 well plate and equal volumes of ice-cold binding buffer were added into each well. The plate was incubated for 30 min under shaking (400 rpm) at 4° C. Then they were incubated with diluted anti-RhoA primary antibodies followed by secondary antibodies while shaking (400 rpm) at room temperature for 45 min each. The plate was incubated with an HRP detection reagent for 15 min at 37° C. and, after addition of an HRP stop buffer, the absorbance was immediately recorded at 490 nm. Microarray and RT-PCR. Total cellular RNA was isolated using the RNAeasy spin columns with the DNAse digestion step. The purity and concentration were determined using a Nanoprop ND 1000 (Nanoprop Technologies, Delaware, USA) and a Bioanalyzer 2100 (Agilent, Waldbronn, Germany). All samples had 260/280 nm ratio above 1.8 and a 28S/18S ratio within 1.5-2. RNA (600 ng) was reverse transcribed into double-stranded complementary DNA (ds-cDNA) in the presence of RNA poly-A controls, RNA Spike-In Kit, Two-Color. The ds-cDNA was in vitro transcribed in the presence of Cy3 (control) and Cy5 (flavonoid-stimulated) labelled nucleotides using a Quick Amp labelling, two-color kit (Agilent P/N 5190-0444, Waldbronn, Germany). Transcription products (1.65 μg) were blocked, fragmented and hybridized to whole Mouse Genome 4×44k OligoMicroarrays (Agilent G4122F) for 17 h at 65° C. Arrays were then washed according to the manufacturer instructions and an Agilent Microarray Scanner used to measure the fluorescent intensity emitted by the labeled target. Total RNA was also reverse transcribed using oligo-dT primer and Superscript III enzyme (Invitrogen). […]

[1] = tested on: NG108-15 neuroblastoma-glioma hybridoma cells and the ND7/23 neural cell line; assay: Incubation of neural cell lines with 15 flavonoids, neurite formation; format: cell-based; details: for neurite formation: screen of 15 flavonoids, NG108-15 and ND7/23 cells
Procedure: Cell culture. The NG108-15 neuroblastoma/glioma cells and ND7/23 rat DRG/mouse neuroblastoma cells were seeded at 10^4 cells/cm^2 on laminin coated wells and stimulated for 48 hours with 40 μM isoquercitrin (Cat No 00140585, Sigma) alone or in combination with either 10 μM Rho Kinase inhibitor Y-27632 (Cat No Y0503, Sigma) or 0.25 μg/ml Rho inhibitor Exoenzyme C3 Transferase (Cat No CT04, Cytoskeleton). Later, isoquercitrin stimulated cells were incubated with 0.2 unit/ml Rho Activator Calpeptin (Cat No CN01, Cytoskeleton) or, alternatively with 0.25 μM Phospholipase C inhibitor U73122 (Cat No 662035, Calbiochem). Live Cell Imaging. During incubation, cells were observed by time-lapse live cell imaging with Cell-IQ (Chip-Man Technologies, Ltd). Quantitative analysis of neurite length/cell was performed using Cell-IQ Analyser Software. Cell imaging by Immunofluorescence. Cells were cultured for 48 hrs on a Chamber Slide™ System (Lab-Tek™) under the above described conditions. Then, the cells were fixed and permeabilized with 4% formaldehyde/0.1% Triton X100 in PBS for 20 min at 4° C. After blocking with PBS containing 20% FBS and 5% BSA for 1 h at room temperature, they were incubated with mAb anti-synaptotagmin-1 (1:200, SY Synaptic Systems) for 1 hr at room temperature. Following three washes in PBS, cells were incubated with Alexa Fluor® 488 goat anti-mouse IgG/IgM (Invitrogen) for 30 min at room temperature. Afterwards, cells were incubated with 0.13 μg/ml phalloidin in the dark for 30 min at 4° C. Finally DAPI was added and last 30 min. Samples were rinsed three times and kept in PBS. The imaging was performed using Confocal Laser Scanning Microscope (Carl Zeiss AG). Assay for RhoA activation. […] The plate was incubated with an HRP detection reagent for 15 min at 37° C. and, after addition of an HRP stop buffer, the absorbance was immediately recorded at 490 nm. […] The purity and concentration were determined using a Nanoprop ND 1000 (Nanoprop Technologies, Delaware, USA) and a Bioanalyzer 2100 (Agilent, Waldbronn, Germany). […]

RhoA = RhoA G-LISA Activation Assay; format: cell-based; details: RhoA Activator for 40 min after 48 hr isoquercitrin incubation (control)
Procedure: FIG. 6 illustrates RhoA activation. […] RhoA activity is depressed following administration of isoquercitrin for 48 hrs.
Cell culture. The NG108-15 neuroblastoma/glioma cells and ND7/23 rat DRG/mouse neuroblastoma cells were seeded at 10^4 cells/cm^2 on laminin coated wells and stimulated for 48 hours with 40 μM isoquercitrin (Cat No 00140585, Sigma) alone or in combination with either 10 μM Rho Kinase inhibitor Y-27632 (Cat No Y0503, Sigma) or 0.25 μg/ml Rho inhibitor Exoenzyme C3 Transferase (Cat No CT04, Cytoskeleton). Later, isoquercitrin stimulated cells were incubated with 0.2 unit/ml Rho Activator Calpeptin (Cat No CN01, Cytoskeleton) or, alternatively with 0.25 μM Phospholipase C inhibitor U73122 (Cat No 662035, Calbiochem). Live Cell Imaging. During incubation, cells were observed by time-lapse live cell imaging with Cell-IQ (Chip-Man Technologies, Ltd). Quantitative analysis of neurite length/cell was performed using Cell-IQ Analyser Software. Cell imaging by Immunofluorescence. […] The plate was incubated with an HRP detection reagent for 15 min at 37° C. and, after addition of an HRP stop buffer, the absorbance was immediately recorded at 490 nm. […] The purity and concentration were determined using a Nanoprop ND 1000 (Nanoprop Technologies, Delaware, USA) and a Bioanalyzer 2100 (Agilent, Waldbronn, Germany). […]

PC 12 cells = details: via the ERK pathway, reference [1]; cited from earlier work
[2] = tested on: PC3 human prostatic cancer cells, NIH 3T3 fibroblasts, and podocytes; details: PC3, NIH 3T3 fibroblasts, references [6-8]; cited from earlier work

## O=c1c(O[C@@H]2O[C@H](CO)[C@@H](O)[C@H](O)[C@H]2O)c(-c2ccc(O)c(O)c2)oc2cc(O)cc(O)c12 [isoquercitrin, quercetin-3-β-D-glycoside]
NG108 cells
  Fold-change, GABA A receptor-associated protein-like 1 Gene: 2.361
  Fold-change, calcium and integrin binding 1 (calmyrin) Gene: 1.297
  Fold-change, cholinergic receptor, nicotinic, alpha polypeptide 10 Gene: 1.438
  Fold-change, cortactin binding protein 2 Gene: 1.518
  Fold-change, dopamine receptor 4 Gene: 1.248
  Fold-change, glutamate receptor, ionotropic, N-methyl D-aspartate-associated protein 1 Gene: 1.595
  Fold-change, neural proliferation, differentiation and control gene 1 Gene: 1.385
  Fold-change, neuroligin 2 Gene: 1.266
  Fold-change, neurotrophin 5 Gene: 1.325
  Fold-change, protein kinase C and casein kinase substrate in neurons 1 Gene: 1.398
  Fold-change, reticulon 3 Gene: 1.316
  Fold-change, synapsin I Gene: 1.287
  Fold-change, synapsin II Gene: 1.518
  Fold-change, synaptogyrin 1 Gene: 2.130
  Fold-change, synaptopodin 2-like Gene: 1.393
  Fold-change, synaptotagmin I Gene: 1.934
  Fold-change, synaptotagmin IV Gene: 1.825
  Fold-change, synaptotagmin XI Gene: 1.913
[1]; in comparison to the other substances tested
  persistence of neurite networks: up to 4 days of culture

## O=c1c(O)c(-c2ccc(O)cc2)oc2cc(O)cc(O)c12 [kaempferol]
[1]
  neurite formation: significant neurites

## CCCC[C@@H](C=O)NC(=O)[C@H](CC(C)C)NC(=O)OCc1ccccc1 [RhoA Activator]
RhoA
  RhoA activation (G-LISA) after RhoA Activator: increases RhoA activation

## O=c1c(O)c(-c2ccc(O)c(O)c2)oc2cc(O)ccc12 [fisetin]
[1]
  neurite formation: significant neurites
PC 12 cells
  neurite outgrowth in PC 12 cells: induce neurite outgrowth

## C[C@@H](N)[C@H]1CC[C@H](C(=O)Nc2ccncc2)CC1 [Y-27632]
[2]
  cell morphology on ROCK inhibition: elongated morphology
